± gives the uncertainty stated by the source.
Assay: xn = mol fraction of the nth substance listed

COCCOCCOC + CCCCOC(C)=O
viscosity [mPa·s], 101.33 kPa
Settings	x1 = 0.0863	x1 = 0.1754	x1 = 0.2733	x1 = 0.3672	x1 = 0.4639	x1 = 0.5609	x1 = 0.6688	x1 = 0.8022	x1 = 0.8835
298.15 K	0.706 ± 0.01	0.734 ± 0.01	0.764 ± 0.011	0.791 ± 0.011	0.822 ± 0.011	0.852 ± 0.012	0.884 ± 0.012	0.924 ± 0.013	0.948 ± 0.013
303.15 K	0.659 ± 0.009	0.684 ± 0.01	0.712 ± 0.01	0.736 ± 0.01	0.764 ± 0.011	0.791 ± 0.011	0.82 ± 0.011	0.856 ± 0.012	0.878 ± 0.012
308.15 K	0.616 ± 0.009	0.639 ± 0.009	0.664 ± 0.01	0.686 ± 0.01	0.714 ± 0.01	0.737 ± 0.01	0.768 ± 0.011	0.796 ± 0.011	0.816 ± 0.011
313.15 K	0.578 ± 0.008	0.599 ± 0.009	0.622 ± 0.009	0.641 ± 0.009	0.665 ± 0.01	0.69 ± 0.01	0.712 ± 0.01	0.742 ± 0.01	0.759 ± 0.011
318.15 K	0.542 ± 0.008	0.562 ± 0.008	0.583 ± 0.009	0.601 ± 0.009	0.622 ± 0.009	0.642 ± 0.009	0.665 ± 0.01	0.692 ± 0.01	0.709 ± 0.01

CNc1ccccc1 + CCCCOCCO
viscosity [mPa·s], 101.3 kPa
Settings	x2 = 0.0992	x2 = 0.2016	x2 = 0.3298	x2 = 0.4032	x2 = 0.4978	x2 = 0.6441	x2 = 0.7771	x2 = 0.8935
298 K	2.01 ± 0.053	2.089 ± 0.055	2.213 ± 0.059	2.314 ± 0.061	2.425 ± 0.064	2.589 ± 0.068	2.709 ± 0.072	2.788 ± 0.073
303 K	1.756 ± 0.047	1.811 ± 0.048	1.918 ± 0.051	1.999 ± 0.053	2.094 ± 0.056	2.232 ± 0.059	2.319 ± 0.061	2.395 ± 0.063
308 K	1.567 ± 0.042	1.613 ± 0.043	1.699 ± 0.045	1.753 ± 0.047	1.836 ± 0.049	1.951 ± 0.052	2.049 ± 0.054	2.111 ± 0.056
313 K	1.398 ± 0.038	1.433 ± 0.039	1.502 ± 0.04	1.55 ± 0.041	1.619 ± 0.043	1.718 ± 0.046	1.792 ± 0.048	1.851 ± 0.049
318 K	1.256 ± 0.034	1.302 ± 0.035	1.352 ± 0.036	1.444 ± 0.039	1.495 ± 0.04	1.576 ± 0.042	1.661 ± 0.044	1.696 ± 0.045

CC(C)Cc1ccc(C(C)C(=O)O)cc1 (centres undefined) + CCCO
viscosity [mPa·s], 100 kPa
Settings	x1 = 0.00242	x1 = 0.00365	x1 = 0.00483	x1 = 0.006021	x1 = 0.007225	x1 = 0.0096	x1 = 0.012
298.15 K	1.95 ± 0.079	1.956 ± 0.08	1.963 ± 0.08	1.971 ± 0.08	1.979 ± 0.081	1.995 ± 0.081	2.014 ± 0.082
308.15 K	1.529 ± 0.062	1.538 ± 0.063	1.548 ± 0.063	1.56 ± 0.064	1.575 ± 0.064	1.605 ± 0.065	1.639 ± 0.067

Source: the CheMixHub viscosity set
